Measured values as given in patent US8987250B2 (Gilead Sciences, Inc., priority 2012, dated 2015).

Tested on: HIV-IIIb
Assay: Test A: Antiviral Assay in MT4 Cells
Type: cell-based
Conditions: Human immunodeficiency virus 1, IIIB, MT4, 120 h
Summary of the method: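 MT-4 cells pre-infected with HIV-IIIb (0.004 m.o.i.) at 37 °C, then exposed to 3-fold serial compound dilutions (10 concentrations, quadruplicate) in RPMI 1640/10% FBS. After 5 days at 37 °C, viability read by CellTiter-Glo luminescence.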

Structure (SMILES)	EC50
Cc1cc2nc(-c3cncc(N4CCN(C(C)C)CC4)n3)sc2c(-c2ccc(Cl)cc2)c1[C@H](OC(C)(C)C)C(=O)O [Compound 480, (S)-2-tert-butoxy-2-(7-(4-chlorophenyl)-2-(6-(4-isopropylpiperazin-1-yl)pyrazin-2-yl)-5-methylbenzo[d]thiazol-6-yl)acetic acid]	2 nM
Cc1cc2nc(-c3ccnc(-c4ncc5c(n4)c(C)nn5C)c3)sc2c(-c2ccc(Cl)cc2)c1[C@H](OC(C)(C)C)C(=O)O [Compound 488, (S)-2-tert-butoxy-2-(7-(4-chlorophenyl)-2-(2-(1,3-dimethyl-1H-pyrazolo[4,3-d]pyrimidin-5-yl)pyridin-4-yl)-5-methylbenzo[d]thiazol-6-yl)acetic acid]	11 nM

Same assay, conditions: Human immunodeficiency virus 1, IIIB, MT4, 120 h, Table 2; MT-4 cells infected with HIV-IIIb, 5 days of incubation, CellTiter-Glo; read-out: EC50

Structure (SMILES)	EC50
Cc1cc2nc(-c3ccnc(-n4ccc5ccncc5c4=O)c3)sc2c(-c2ccc(Cl)cc2)c1[C@H](OC(C)(C)C)C(=O)O [Compound 458]	5 nM
Cc1cc2nc(-c3ccnc(-c4ccc5[nH]c(=O)ccc5c4)c3)sc2c(-c2ccc(Cl)cc2)c1[C@H](OC(C)(C)C)C(=O)O [Compound 459]	28 nM
Cc1cc2nc(-c3ccnc(-n4ccn5cccc5c4=O)c3)sc2c(-c2ccc(Cl)cc2)c1[C@H](OC(C)(C)C)C(=O)O [Compound 460]	31 nM
Cc1cc2nc(-c3ccnc(-c4ccc5c(c4)c(=O)n(C)n5C)c3)sc2c(-c2ccc(Cl)cc2)c1[C@H](OC(C)(C)C)C(=O)O [Compound 461]	14 nM
Cc1cc2nc(-c3ccnc(-n4ccc5ccccc5c4=O)c3)sc2c(-c2ccc(Cl)cc2)c1[C@H](OC(C)(C)C)C(=O)O [Compound 462]	42 nM
Cc1cc2nc(-c3ccnc(-c4ccc5c(c4)[nH]c(=O)n5C)c3)sc2c(-c2ccc(Cl)cc2)c1[C@H](OC(C)(C)C)C(=O)O [Compound 463]	52 nM
CCC(CC)N1CCN(c2nccc(-c3nc4cc(C)c([C@H](OC(C)(C)C)C(=O)O)c(-c5ccc(Cl)cc5)c4s3)n2)CC1 [Compound 464, (S)-2-tert-butoxy-2-(7-(4-chlorophenyl)-5-methyl-2-(2-(4-(pentan-3-yl)piperazin-1-yl)pyrimidin-4-yl)benzo[d]thiazol-6-yl)acetic acid]	12 nM
Cc1cc2nc(-c3ccnc(N4CCN(C(C)(C)C)CC4)n3)sc2c(-c2ccc(Cl)cc2)c1[C@H](OC(C)(C)C)C(=O)O [Compound 465, (S)-2-tert-butoxy-2-(2-(2-(4-tert-butylpiperazin-1-yl)pyrimidin-4-yl)-7-(4-chlorophenyl)-5-methylbenzo[d]thiazol-6-yl)acetic acid]	2 nM
Cc1cc2nc(-c3ccnc(N4CCN(C(C)C)C[C@H]4C)n3)sc2c(-c2ccc(Cl)cc2)c1[C@H](OC(C)(C)C)C(=O)O [Compound 466, (S)-2-tert-butoxy-2-(7-(4-chlorophenyl)-2-(2-((R)-4-isopropyl-2-methylpiperazin-1-yl)pyrimidin-4-yl)-5-methylbenzo[d]thiazol-6-yl)acetic acid]	5 nM
Cc1cc2nc(-c3ccnc(N4CCN(C)[C@@H](C)C4)n3)sc2c(-c2ccc(Cl)cc2)c1[C@H](OC(C)(C)C)C(=O)O [Compound 468, (S)-2-tert-butoxy-2-(7-(4-chlorophenyl)-2-(2-((S)-3,4-dimethylpiperazin-1-yl)pyrimidin-4-yl)-5-methylbenzo[d]thiazol-6-yl)acetic acid]	8 nM
Cc1cc2nc(-c3ccnc(N4CCN(C)[C@H](C)C4)n3)sc2c(-c2ccc(Cl)cc2)c1[C@H](OC(C)(C)C)C(=O)O [Compound 469, (S)-2-tert-butoxy-2-(7-(4-chlorophenyl)-2-(2-((R)-3,4-dimethylpiperazin-1-yl)pyrimidin-4-yl)-5-methylbenzo[d]thiazol-6-yl)acetic acid]	8 nM
Cc1cc2nc(-c3ccnc(N4CCN(C(C)C)[C@@H](C)C4)n3)sc2c(-c2ccc(Cl)cc2)c1[C@H](OC(C)(C)C)C(=O)O [Compound 470, (S)-2-tert-butoxy-2-(7-(4-chlorophenyl)-2-(2-((S)-4-isopropyl-3-methylpiperazin-1-yl)pyrimidin-4-yl)-5-methylbenzo[d]thiazol-6-yl)acetic acid]	3 nM
Cc1cc2nc(-c3ccnc(N4CCN(C(C)C)[C@H](C)C4)n3)sc2c(-c2ccc(Cl)cc2)c1[C@H](OC(C)(C)C)C(=O)O [Compound 471, (S)-2-tert-butoxy-2-(7-(4-chlorophenyl)-2-(2-((R)-4-isopropyl-3-methylpiperazin-1-yl)pyrimidin-4-yl)-5-methylbenzo[d]thiazol-6-yl)acetic acid]	3 nM
Cc1cc2nc(-c3ccnc(N4CCN(C(=O)N(C)C)CC4)n3)sc2c(-c2ccc(Cl)cc2)c1[C@H](OC(C)(C)C)C(=O)O [Compound 472, (S)-2-tert-butoxy-2-(7-(4-chlorophenyl)-2-(2-(4-(dimethylcarbamoyl)piperazin-1-yl)pyrimidin-4-yl)-5-methylbenzo[d]thiazol-6-yl)acetic acid]	4 nM
CCN1CCN(c2nccc(-c3nc4cc(C)c([C@H](OC(C)(C)C)C(=O)O)c(-c5ccc(Cl)cc5)c4s3)n2)CC1=O [Compound 473, (S)-2-tert-butoxy-2-(7-(4-chlorophenyl)-2-(2-(4-ethyl-3-oxopiperazin-1-yl)pyrimidin-4-yl)-5-methylbenzo[d]thiazol-6-yl)acetic acid]	8 nM
Cc1cc2nc(-c3ccnc(N4CCN(C(C)C(F)(F)F)CC4)n3)sc2c(-c2ccc(Cl)cc2)c1[C@H](OC(C)(C)C)C(=O)O (stereo partly drawn) [Compound 474, (2S)-2-tert-butoxy-2-(7-(4-chlorophenyl)-5-methyl-2-(2-(4-((2R/2S)-1,1,1-trifluoropropan-2-yl)piperazin-1-yl)pyrimidin-4-yl)benzo[d]thiazol-6-yl)acetic acid]	40 nM
CCN1CCN(c2nccc(-c3nc4cc(C)c([C@H](OC(C)(C)C)C(=O)O)c(-c5ccc(Cl)cc5)c4s3)n2)CC1 [Compound 475, (S)-2-tert-butoxy-2-(7-(4-chlorophenyl)-2-(2-(4-ethylpiperazin-1-yl)pyrimidin-4-yl)-5-methylbenzo[d]thiazol-6-yl)acetic acid]	6 nM
Cc1cc2nc(-c3ccnc(N4CCNCC4)n3)sc2c(-c2ccc(Cl)cc2)c1[C@H](OC(C)(C)C)C(=O)O [Compound 476, (S)-2-tert-butoxy-2-(7-(4-chlorophenyl)-5-methyl-2-(2-(piperazin-1-yl)pyrimidin-4-yl)benzo[d]thiazol-6-yl)acetic acid]	128 nM
Cc1cc2nc(-c3ccnc(N4CCCN(C)CC4)n3)sc2c(-c2ccc(Cl)cc2)c1[C@H](OC(C)(C)C)C(=O)O [Compound 477, (S)-2-tert-butoxy-2-(7-(4-chlorophenyl)-5-methyl-2-(2-(4-methyl-1,4-diazepan-1-yl)pyrimidin-4-yl)benzo[d]thiazol-6-yl)acetic acid]	14 nM
Cc1cc2nc(-c3ccnc(N4CC[C@H](N(C)C)C4)n3)sc2c(-c2ccc(Cl)cc2)c1[C@H](OC(C)(C)C)C(=O)O [Compound 478, (S)-2-tert-butoxy-2-(7-(4-chlorophenyl)-2-(2-((S)-3-(dimethylamino)pyrrolidin-1-yl)pyrimidin-4-yl)-5-methylbenzo[d]thiazol-6-yl)acetic acid]	4 nM
Cc1cc2nc(-c3ccnc(N4CC[C@@H](N(C)C)C4)n3)sc2c(-c2ccc(Cl)cc2)c1[C@H](OC(C)(C)C)C(=O)O [Compound 479, (S)-2-tert-butoxy-2-(7-(4-chlorophenyl)-2-(2-((R)-3-(dimethylamino)pyrrolidin-1-yl)pyrimidin-4-yl)-5-methylbenzo[d]thiazol-6-yl)acetic acid]	4 nM
Cc1cc2nc(-c3cncc(N4CCN(C(C)C)CC4)c3)sc2c(-c2ccc(Cl)cc2)c1[C@H](OC(C)(C)C)C(=O)O [Compound 481, (S)-2-tert-butoxy-2-(7-(4-chlorophenyl)-2-(5-(4-isopropylpiperazin-1-yl)pyridin-3-yl)-5-methylbenzo[d]thiazol-6-yl)acetic acid]	17 nM
Cc1cc2nc(-c3cncc(N4CCN(C5COC5)CC4)c3)sc2c(-c2ccc(Cl)cc2)c1[C@H](OC(C)(C)C)C(=O)O [Compound 482, (S)-2-tert-butoxy-2-(7-(4-chlorophenyl)-5-methyl-2-(5-(4-(oxetan-3-yl)piperazin-1-yl)pyridin-3-yl)benzo[d]thiazol-6-yl)acetic acid]	14 nM
Cc1cc2nc(-c3cccc(N4CCN(C(C)C)CC4)c3)sc2c(-c2ccc(Cl)cc2)c1[C@H](OC(C)(C)C)C(=O)O [Compound 483, (S)-2-tert-butoxy-2-(7-(4-chlorophenyl)-2-(3-(4-isopropylpiperazin-1-yl)phenyl)-5-methylbenzo[d]thiazol-6-yl)acetic acid]	37 nM
Cc1cc2nc(-c3csc(N4CCN(C(C)C)CC4)n3)sc2c(-c2ccc(Cl)cc2)c1[C@H](OC(C)(C)C)C(=O)O [Compound 484, (S)-2-tert-butoxy-2-(7-(4-chlorophenyl)-2-(2-(4-isopropylpiperazin-1-yl)thiazol-4-yl)-5-methylbenzo[d]thiazol-6-yl)acetic acid]	9 nM
Cc1cc2nc(-c3cnc(N4CCN(C(C)C)CC4)s3)sc2c(-c2ccc(Cl)cc2)c1[C@H](OC(C)(C)C)C(=O)O [Compound 485, (S)-2-tert-butoxy-2-(7-(4-chlorophenyl)-2-(2-(4-isopropylpiperazin-1-yl)thiazol-5-yl)-5-methylbenzo[d]thiazol-6-yl)acetic acid]	15 nM
Cc1cc2nc(-c3ncc(N4CCN(C(C)C)CC4)s3)sc2c(-c2ccc(Cl)cc2)c1[C@H](OC(C)(C)C)C(=O)O [Compound 486, (S)-2-tert-butoxy-2-(7-(4-chlorophenyl)-2-(5-(4-isopropylpiperazin-1-yl)thiazol-2-yl)-5-methylbenzo[d]thiazol-6-yl)acetic acid]	31 nM
Cc1cc2nc(-c3ncc4c(n3)c(C)nn4C)sc2c(-c2ccc(Cl)cc2)c1[C@H](OC(C)(C)C)C(=O)O [Compound 487, (S)-2-tert-butoxy-2-(7-(4-chlorophenyl)-2-(1,3-dimethyl-1H-pyrazolo[4,3-d]pyrimidin-5-yl)-5-methylbenzo[d]thiazol-6-yl)acetic acid]	12 nM
